In the supplement of paper PMC11451515:

System: P12-Ichikawa
Assay: cell viability relative to DMSO control; higher = less cytotoxic
Conditions: 48 h
Outline: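 Library compounds in DMSO were pin-dosed into 1536-well plates (5 μl) holding NOMO1 or SEM (500 cells/well) or P12-Ichikawa (1000 cells/well) leukemia cells, across an 11-point threefold series of 47 μM to 0.79 nM. Each cell line had been adapted for at least four passages in each medium. CellTiter-Glo One luminescence was read after 48 h at 37°C. Viability is the per-plate percentage relative to DMSO wells, with cell-free wells as background.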

[1] = HPLM + 10% dialyzed FBS, 0.000781 µM
[2] = HPLM + 10% dialyzed FBS, 0.00234 µM
[3] = HPLM + 10% dialyzed FBS, 0.00702 µM
[4] = HPLM + 10% dialyzed FBS, 0.0211 µM
[5] = HPLM + 10% dialyzed FBS, 0.0632 µM
[6] = HPLM + 10% dialyzed FBS, 0.19 µM
[7] = HPLM + 10% dialyzed FBS, 0.569 µM
[8] = HPLM + 10% dialyzed FBS, 1.71 µM
[9] = HPLM + 10% dialyzed FBS, 5.12 µM
[10] = HPLM + 10% dialyzed FBS, 15.4 µM
[11] = HPLM + 10% dialyzed FBS, 46.1 µM
[12] = RPMI 5 mM glucose + 10% FBS, 0.000781 µM
[13] = RPMI 5 mM glucose + 10% FBS, 0.00234 µM
[14] = RPMI 5 mM glucose + 10% FBS, 0.00702 µM
[15] = RPMI 5 mM glucose + 10% FBS, 0.0211 µM
[16] = RPMI 5 mM glucose + 10% FBS, 0.0632 µM
[17] = RPMI 5 mM glucose + 10% FBS, 0.19 µM
[18] = RPMI 5 mM glucose + 10% FBS, 0.569 µM
[19] = RPMI 5 mM glucose + 10% FBS, 1.71 µM
[20] = RPMI 5 mM glucose + 10% FBS, 5.12 µM
[21] = RPMI 5 mM glucose + 10% FBS, 15.4 µM
[22] = RPMI 5 mM glucose + 10% FBS, 46.1 µM
[23] = RPMI 5 mM glucose + 10% dialyzed FBS, 0.000781 µM
[24] = RPMI 5 mM glucose + 10% dialyzed FBS, 0.00234 µM
[25] = RPMI 5 mM glucose + 10% dialyzed FBS, 0.00702 µM
[26] = RPMI 5 mM glucose + 10% dialyzed FBS, 0.0211 µM
[27] = RPMI 5 mM glucose + 10% dialyzed FBS, 0.0632 µM
[28] = RPMI 5 mM glucose + 10% dialyzed FBS, 0.19 µM
[29] = RPMI 5 mM glucose + 10% dialyzed FBS, 0.569 µM
[30] = RPMI 5 mM glucose + 10% dialyzed FBS, 1.71 µM
[31] = RPMI 5 mM glucose + 10% dialyzed FBS, 5.12 µM
[32] = RPMI 5 mM glucose + 10% dialyzed FBS, 15.4 µM
[33] = RPMI 5 mM glucose + 10% dialyzed FBS, 46.1 µM

Structure (SMILES) | cell viability [1] [%] | cell viability [2] [%] | cell viability [3] [%] | cell viability [4] [%] | cell viability [5] [%] | cell viability [6] [%] | cell viability [7] [%] | cell viability [8] [%] | cell viability [9] [%] | cell viability [10] [%] | cell viability [11] [%] | cell viability [12] [%] | cell viability [13] [%] | cell viability [14] [%] | cell viability [15] [%] | cell viability [16] [%] | cell viability [17] [%] | cell viability [18] [%] | cell viability [19] [%] | cell viability [20] [%] | cell viability [21] [%] | cell viability [22] [%] | cell viability [23] [%] | cell viability [24] [%] | cell viability [25] [%] | cell viability [26] [%] | cell viability [27] [%] | cell viability [28] [%] | cell viability [29] [%] | cell viability [30] [%] | cell viability [31] [%] | cell viability [32] [%] | cell viability [33] [%]
CCC1(c2ccc(N)cc2)CCC(=O)NC1=O (configuration not stated) | 116 | 113 | 109 | 111 | 121 | 110 | 109 | 98.2 | 101 | 96.7 | 91.7 | 125 | 120 | 120 | 111 | 110 | 115 | 114 | 98.9 | 102 | 109 | 106 | 115 | 116 | 114 | 116 | 109 | 108 | 104 | 96.4 | 93.6 | 97.9 | 88
Clc1cc(Cl)cc(CNc2ncncc2-c2ccc3c(c2)OCO3)c1 | 93.7 | 93.6 | 92.6 | 97.4 | 100 | 90.3 | 93.8 | 97.5 | 92.6 | 94 | 10.4 | 97.6 | 92.7 | 91.3 | 93.8 | 96.3 | 93.1 | 86.6 | 94.2 | 89.9 | 86 | 47.2 | 87.6 | 96.6 | 102 | 96.1 | 95.1 | 91.7 | 92.7 | 102 | 97.9 | 99 | 61.1
CC(C)Nc1cc(C(F)(F)F)cc2nc(NC(=O)c3cccnc3)nn12 | 113 | 115 | 117 | 116 | 108 | 107 | 108 | 10.1 | 12.6 | 14.6 | 33.5 |  |  |  |  |  |  |  |  |  |  |  | 121 | 115 | 113 | 113 | 116 | 114 | 111 | 28.2 | 24.1 | 24.9 | 37
O=C1\C=C/C[C@@H]2[C@H]3CCCN4CCC[C@@H](CN12)[C@@H]34 | 98.2 | 103 | 107 | 101 | 108 | 99.2 | 98.1 | 104 | 98.9 | 99.1 | 89.6 | 103 | 116 | 109 | 101 | 98.5 | 94.8 | 98.5 | 85.7 | 93.5 | 96.8 | 89.7 | 102 | 98.5 | 97.8 | 105 | 98.4 | 94 | 105 | 95.7 | 100 | 94.3 | 86.8
CCNC(=O)c1cc2c(-c3cc(OCCN4CCCC4)c(Cl)cc3Cl)nc(N)nc2s1 | 98.3 | 103 | 109 | 108 | 102 | 101 | 108 | 92.8 | 62.9 | 53.6 | 44.9 | 102 | 91.9 | 106 | 97 | 98.4 | 95.8 | 97.2 | 77.6 | 47.1 | 34 | 35.5 | 102 | 96.5 | 101 | 94.7 | 96 | 97.6 | 90.5 | 73.4 | 42 | 36.5 | 31.5
O=C1Nc2ccc(Cl)cc2[C@@](C#CC2CC2)(C(F)(F)F)O1 | 81.8 | 91.9 | 90.5 | 90.6 | 90.2 | 91.1 | 91.1 | 92.1 | 96.2 | 95 | 80 | 78.3 | 94.4 | 78.6 | 76.2 | 85.5 | 83.1 | 91.6 | 85 | 84.5 | 85.1 | 55.4 | 73.8 | 77.7 | 80.5 | 88.6 | 80.8 | 85.1 | 78.4 | 77.7 | 79.8 | 79 | 61.8
Cc1c(Cn2c(C)nc3c(C(=O)O)cc(N4CCOCC4)cc32)cccc1C(F)(F)F | 102 | 109 | 107 | 116 | 115 | 108 | 120 | 106 | 104 | 110 | 87.8 | 98.6 | 100 | 108 | 115 | 111 | 102 | 113 | 109 | 99.5 | 89.2 | 94.2 | 92.9 | 112 | 109 | 122 | 115 | 106 | 119 | 111 | 96.9 | 107 | 100
CC(C)C[C@H](NC(=O)[C@@H](NC(=O)c1cccc(-c2ccccc2)n1)[C@@H](C)O)B(O)O | 101 | 114 | 112 | 112 | 45.1 | 7.04 | 6.52 | 6.5 | 3.21 | 1.52 | 1.32 | 103 | 118 | 123 | 110 | 17.8 | 7.41 | 6.75 | 6.12 | 4.81 | 2.62 | 1.65 | 99.4 | 109 | 122 | 124 | 53.2 | 7.76 | 6.76 | 6.66 | 5.34 | 2.52 | 1.55
O=C(/C=C/c1cccc([S+](=O)([O-])Nc2ccccc2)c1)NO | 115 | 115 | 125 | 119 | 129 | 129 | 126 | 101 | 20.8 | 7.58 | 7.44 |  |  |  |  |  |  |  |  |  |  |  |  |  |  |  |  |  |  |  |  |  | 
CCCCCCCc1ccc(CCc2cccc(O)c2C(=O)O)cc1 | 122 | 124 | 126 | 124 | 119 | 111 | 123 | 110 | 108 | 104 | 90.2 | 125 | 121 | 127 | 129 | 128 | 119 | 107 | 111 | 104 | 97.7 | 91.3 |  |  |  |  |  |  |  |  |  |  | 
CC(C)Oc1cc(Nc2nc(N[C@@H](C)c3ccc(F)cn3)ncc2Cl)n[nH]1 | 111 | 111 | 116 | 112 | 110 | 115 | 106 | 13.3 | 14.7 | 29.6 | 41.1 | 104 | 92.9 | 105 | 106 | 108 | 110 | 104 | 15.2 | 17 | 27.5 | 40 | 113 | 113 | 108 | 114 | 115 | 116 | 105 | 27.9 | 30.5 | 46.6 | 55.5
C=CC1=C(C(=O)O)N2C(=O)[C@@H](NC(=O)/C(=N\O)c3csc(N)n3)[C@H]2SC1 | 100 | 115 | 79.3 | 116 | 131 | 122 | 121 | 117 | 125 | 35.2 | 123 | 101 | 112 | 66.1 | 116 | 117 | 123 | 124 | 115 | 119 | 124 | 109 | 99.2 | 118 | 75.5 | 112 | 124 | 117 | 117 | 129 | 115 | 123 | 125
